Source: PMC7180452, “Purine and Purine Isostere Derivatives of Ferrocene: An Evaluation of ADME, Antitumor and Electrochemical Properties” (Molecules, 2020)

Columns and labels:
[1] = Square-wave and cyclic voltammetry on glassy carbon electrode; format: physicochemical; conditions: SWV, 0.5 mol/L NaClO4, pH 9, vs Ag/AgCl
Text: The electrochemical properties of 6-chloro-7-deazapurine and 6-chloropurine derivatives of ferrocene 11c, 13a and 15b on a glassy carbon electrode were studied using cyclic (CV) and square-wave voltammetry (SWV) in aqueous electrolyte solutions over a wide pH range. The pH was varied from 2 to 10 in order to determine the effect of pH on the voltammograms (net peak currents and potentials). […] The pH of the solution affects the voltammetric response of this compound, i.e., the oxidation of evaluated compounds 11c, 13a and 15b is strongly dependent on it.
The forward (if) and backward (ib) components of the net response (Δi = if − ib) are shown as well (inset in Figure 2). […] The peak P1 occurs in all supporting electrolytes (i.e., at 2 ≤ pH ≤ 10), while the peak P2 is only observed at pH ≥ 9 (see Figure 1). The potential of peak P1 is pH-independent. Comparing to the literature data, peak P1 can be ascribed to the following charge transfer reaction [Fe^II(C5H5)2] ⇌ [Fe^III(C5H5)2]^+ + e^− [44, 48].
All chemicals used in the experiments were of the best grade commercially available (Sigma-Aldrich) and were used without further purification. Stock standard solutions of compounds 11c, 13a, 15b (c = 2.0 × 10^−3 mol/L) and 6-chloropurine (c = 1.2 × 10^−2 mol/L) were prepared from dry pure substances in dimethyl sulfoxide (DMSO, p.a.), purchased from Kemika (Zagreb, Croatia). Stock standard solution of ethynyl ferrocene (c = 1.1 × 10^−2 mol/L) was prepared from dry pure substance in ethanol (Kemika). For the supporting electrolyte, analytical grade NaClO4 (Kemika) was used. Water was deionized by the Millipore Milli-Q system to the resistivity ≥ 18 MΩcm. Voltammetric measurements were carried out using the computer-controlled electrochemical system „PGSTAT 101“ (Eco-Chemie, Utrecht, The Netherlands), controlled by the electrochemical software “NOVA 1.5”. A three-electrode system (BioLogic, Claix, France) with glassy carbon electrode (GCE) of 3 mm in diameter as a working electrode, Ag/AgCl (3 mol/L NaCl) as a reference electrode and a platinum wire as a counter electrode were used. All potentials were expressed versus Ag/AgCl (3 mol/L NaCl) reference electrode. The supporting electrolyte (0.5 mol/L NaClO4), adjusted to the desired pH value, was placed in the electrochemical cell and the required aliquot of the standard analyte solution was added. The solution in the electrochemical cell was degassed with high purity nitrogen for 10 min before measurement, and the nitrogen blanket was maintained thereafter. Before each run, the glassy carbon working electrode was polished with diamond suspension in spray (grain size 6 µm) and rinsed with ethanol and deionized water. All experiments were performed at room temperature. The presented results are reported as the mean value of three independent measurements.

[2] = test system: metastatic colorectal adenocarcinoma (SW620); test: In vitro antiproliferative activity, SW620; format: cell-based, human; conditions: SW620 cells
Procedure: (§1) Antiproliferative activity of compounds 11a−11c, 12a−12c, 13a−13c, 14a−14c, 15a−15c, 16a, 23a−23c, 24a−24c, 25a−25c, 34a−34c and 35a−35c was evaluated in vitro on four human tumor cell lines (American Type Culture Collection, Manassas, VA, USA): metastatic colorectal adenocarcinoma (SW620), ductal pancreatic adenocarcinoma (CFPAC-1), hepatocellular carcinoma (HepG2) and cervical carcinoma (HeLa) as well as normal skin fibroblasts (HFF).

[3] = test system: ductal pancreatic adenocarcinoma (CFPAC-1); test: In vitro antiproliferative activity, CFPAC-1; format: cell-based, human; conditions: CFPAC-1 cells
Procedure: as §1

[4] = test system: hepatocellular carcinoma (HepG2); test: In vitro antiproliferative activity, HepG2; format: cell-based, human; conditions: HepG2 cells
Procedure: as §1

[5] = test system: cervical carcinoma (HeLa); test: In vitro antiproliferative activity, HeLa; format: cell-based, human; conditions: HeLa cells
Procedure: as §1

[6] = test system: normal skin fibroblasts (HFF); test: Cytotoxicity on non-tumor cells, HFF; format: cell-based, human
Procedure: as §1

[7] = pH 7.4
Procedure: The distribution coefficient Chrom logD, a parameter used to assess the lipophilicity of compounds [36, 37], was determined for novel purine and purine isosteres with a ferrocene motif as shown in Table 1.
The distribution coefficient, Chrom logD, was determined from compounds’ gradient retention times by employing a high-performance liquid chromatography method with fast acetonitrile gradient. Compounds were prepared for analysis in final concentration of 1.25 mM by dilution of 10 mM stock solutions in DMSO with acetonitrile. Aqueous mobile phase was 50 mM ammonium acetate adjusted with ammonia solution to pH 7.4 and the organic mobile phase was acetonitrile. A reversed phase HPLC column Luna C18, 50 × 3 mm i.d., 5 µm particle size (Phenomenex, Torrance, CA, USA) was used for analysis. Sample injection volume was 2 µL and the flow rate was 1 mL min^−1. All compounds were analysed in duplicates. Fast-gradient elution was as follows: from 0 to 100% of acetonitrile (0−3 min), 100% of acetonitrile (3.0−3.5 min), from 100 to 0% of acetonitrile (3.5−3.7 min), and re-equilibration with 100% of aqueous mobile phase (3.7−5.0 min). All measurements were performed on an HPLC-DAD instrument Agilent 1100 Series (Agilent Technologies, Santa Clara, CA, USA) coupled with a mass spectrometer Micromass Quattro API (Waters, MA, USA). MassLynx software, version 4.1 (Waters, Manchester, UK) was used for data acquisition and processing. Before compound analysis, a calibration step was performed. A set of standard compounds with literature CHI values [36] were plotted against gradient retention times to obtain a calibration equation, which was used to determine CHI value from the compounds’ retention times.

Row | Oxidation peak P2 potential (triazole) [1] | IC50 [2] | IC50 [3] | IC50 [4] | IC50 [5] | Chrom logD [7] | Compound | IC50 [6]
1 | No anodic peak P2 was detected | – | – | – | – | – | Clc1ncnc2nc[nH]c12 [6-chloropurine, reference compound] | –
2 | – | > 100 µM | > 100 µM | > 100 µM | > 100 µM | >6.57 | CC([c-]1cccc1)n1cc(Cn2ccc3cc(I)ccc32)nn1.[Fe+2].c1cc[cH-]c1 (centres unmarked) [Compound 25b, 5-Iodo-1-[1-(1-ferrocenyl-1-methylmethyl-1,2,3-triazol-4-yl)methyl]-1H-indole] | > 100 µM
3 | – | > 100 µM | > 100 µM | 71.8 ± 3.44 µM | 79.4 ± 1.82 µM | >6.57 | Ic1ccc2c(ccn2Cc2cn(-[c-]3cccc3)nn2)c1.[Fe+2].c1cc[cH-]c1 [Compound 25c, 5-Iodo-1-[1-(1-ferrocenyl-1,2,3-triazol-4-yl)methyl]-1H-indole] | 4.75 ± 1.7 µM
4 | No anodic peak P2 was detected | – | – | – | – | – | C#Cc1cc[cH-]c1.[Fe+2].c1cc[cH-]c1 [ethynyl ferrocene, reference compound] | –
